What all share (format): biochemical
Assay [1] addresses T1, recombinant 15-LOX enzyme (Homo sapiens, UniProt P16050).
T1 sequence (P16050 1-662): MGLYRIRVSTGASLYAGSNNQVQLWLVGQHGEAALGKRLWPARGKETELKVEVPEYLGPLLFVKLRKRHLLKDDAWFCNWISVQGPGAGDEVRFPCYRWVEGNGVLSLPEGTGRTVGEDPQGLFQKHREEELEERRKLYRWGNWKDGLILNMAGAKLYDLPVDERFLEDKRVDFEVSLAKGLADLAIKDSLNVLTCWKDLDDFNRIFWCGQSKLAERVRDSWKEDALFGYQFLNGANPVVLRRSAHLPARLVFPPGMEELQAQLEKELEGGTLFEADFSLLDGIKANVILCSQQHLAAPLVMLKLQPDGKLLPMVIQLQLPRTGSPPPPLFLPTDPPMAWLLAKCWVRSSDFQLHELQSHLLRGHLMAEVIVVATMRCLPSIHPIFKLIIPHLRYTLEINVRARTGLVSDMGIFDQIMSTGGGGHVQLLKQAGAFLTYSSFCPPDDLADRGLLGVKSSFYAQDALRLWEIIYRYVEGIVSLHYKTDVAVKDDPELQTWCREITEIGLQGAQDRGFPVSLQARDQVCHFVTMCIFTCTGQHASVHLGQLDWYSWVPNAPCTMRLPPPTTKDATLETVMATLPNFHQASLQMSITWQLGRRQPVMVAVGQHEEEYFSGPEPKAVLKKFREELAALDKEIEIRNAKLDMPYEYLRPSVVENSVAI
The experiment in a line: 15-LOX fluorescent assay. As to conditions: several values in one cell = repeat determinations. The protocol:
(§1) 12-LOX/15-LOX Fluorescent Assay
(§2) The enzyme assay (100 ul) contained 50 mM Tris, pH 7.5, 0.05% Tween-20, 20 μM AA/LA, 1 μM DHR123, and 100 nM recombinant 12-LOX enzyme/50 nM recombinant 15-LOX enzyme. Inhibitors (dissolved in DMSO) were plated at 1 μL into 96-well assay microplates followed by a 40 μL addition of a solution containing 12-LOX/15-LOX enzyme. Enzyme was pre-incubated with compounds for 15 mins. The assay was initiated by the addition of a 40 μL substrate solution containing AA/LA, and 20 μL addition of a solution containing DHR123. Enzymatic reaction proceeded for 30 min with kinetic reading at 500 nm excitation & 536 nm emission in SpectraMax Paradigm (MolecularDevice). Percent inhibition was calculated for each compound dose for IC50 curve fitting using 4 Parameter Logistic Model or Sigmoidal Dose-Response Model.

Assay [2] addresses T2, recombinant 5-LOX (Homo sapiens, UniProt P09917).
T2 sequence (P09917 1-674): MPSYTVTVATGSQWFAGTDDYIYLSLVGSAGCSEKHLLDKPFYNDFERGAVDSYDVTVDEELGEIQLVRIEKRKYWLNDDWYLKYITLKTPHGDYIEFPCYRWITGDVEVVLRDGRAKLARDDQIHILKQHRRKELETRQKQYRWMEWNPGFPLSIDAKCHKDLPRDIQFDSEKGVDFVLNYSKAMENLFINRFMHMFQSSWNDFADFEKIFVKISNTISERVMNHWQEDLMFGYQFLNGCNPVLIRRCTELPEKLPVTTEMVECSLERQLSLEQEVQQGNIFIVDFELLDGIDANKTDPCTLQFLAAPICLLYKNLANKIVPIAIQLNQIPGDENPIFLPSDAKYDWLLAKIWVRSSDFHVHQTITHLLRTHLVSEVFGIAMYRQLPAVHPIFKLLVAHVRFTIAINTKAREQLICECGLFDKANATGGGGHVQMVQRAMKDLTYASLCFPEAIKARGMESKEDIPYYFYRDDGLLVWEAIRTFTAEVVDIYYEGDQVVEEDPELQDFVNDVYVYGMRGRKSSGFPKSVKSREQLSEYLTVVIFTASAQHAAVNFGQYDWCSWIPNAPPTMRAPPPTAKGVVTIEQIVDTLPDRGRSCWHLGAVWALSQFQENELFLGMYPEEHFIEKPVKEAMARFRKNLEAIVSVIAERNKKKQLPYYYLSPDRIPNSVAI
Description: 5-LOX fluorescent assay. The note with it: several values in one cell = repeat determinations; read-out: IC50 (μM) values for in vitro lipoxygenase inhibition, 5-LOX. Here is the method: 5-LOX FI assay Fluorescent Assay
The enzyme assay (100 μL) contained 50 mM Tris, pH 7.5, 0.1 mM EDTA, 0.3 mM CaCl2, 20 μM AA, 100 μM ATP, 1 μM DHR123, and recombinant 5-LOX cell lysate (0.5 μL/100 μL). Inhibitors (dissolved in DMSO) were plated at 1 μL into 96-well assay microplates followed by a 40 μL addition of a solution containing 5-LOX enzyme. Enzyme was pre-incubated with compounds for 15 mins. The assay was initiated by the addition of a 40 μL substrate solution containing AA and ATP, and 20 μL addition of a solution containing DHR123. Enzymatic reaction proceeded for 30 min with kinetic reading at 500 nm excitation & 536 nm emission in SpectraMax Paradigm (MolecularDevice). Percent inhibition was calculated for each compound dose for IC50 curve fitting using 4 Parameter Logistic Model or Sigmoidal Dose-Response Model.

In assay [3] the target is T3, recombinant 12-LOX enzyme (Homo sapiens, UniProt P18054).
T3 sequence (P18054 1-663): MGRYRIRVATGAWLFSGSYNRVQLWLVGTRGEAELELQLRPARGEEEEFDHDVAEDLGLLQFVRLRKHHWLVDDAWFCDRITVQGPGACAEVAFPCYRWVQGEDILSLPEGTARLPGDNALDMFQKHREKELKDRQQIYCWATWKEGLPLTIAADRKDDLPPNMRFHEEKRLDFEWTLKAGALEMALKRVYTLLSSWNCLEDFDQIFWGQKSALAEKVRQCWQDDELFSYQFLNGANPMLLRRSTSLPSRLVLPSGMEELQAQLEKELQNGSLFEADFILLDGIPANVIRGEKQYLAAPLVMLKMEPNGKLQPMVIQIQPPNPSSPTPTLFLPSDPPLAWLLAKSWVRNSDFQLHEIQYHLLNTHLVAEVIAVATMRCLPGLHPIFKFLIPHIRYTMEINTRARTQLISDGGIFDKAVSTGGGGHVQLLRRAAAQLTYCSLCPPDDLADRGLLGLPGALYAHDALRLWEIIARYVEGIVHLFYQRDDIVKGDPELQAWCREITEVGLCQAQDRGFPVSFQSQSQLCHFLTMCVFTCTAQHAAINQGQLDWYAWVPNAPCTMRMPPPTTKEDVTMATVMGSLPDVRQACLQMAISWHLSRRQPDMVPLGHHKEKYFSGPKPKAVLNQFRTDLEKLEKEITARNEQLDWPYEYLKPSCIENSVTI
The experiment in a line: 12-LOX fluorescent assay. The note with it: several values in one cell = repeat determinations; read-out: IC50 (μM) values for in vitro lipoxygenase inhibition, 12-LOX. Here is the method: as §1, §2

[4] abbreviates: read-out: IC50 (μM) values for in vitro lipoxygenase inhibition, 15-LOX.
Where [5] appears, read: IC50 (μM) values for in vitro lipoxygenase inhibition, 15-LOX.

Several values for one entry are separate records, joined by “and”; a condition that tells them apart may be missing. Identical values can stand only once. Counter-ions that a name gives are not always drawn. Like-named read-outs stand apart in the source and are kept apart here.

By IC50 is commonly meant the midpoint of a concentration-inhibition curve. `c1ccc2c(c1)CCc1cc(C3CCOCC3)c(NCCn3cncn3)cc1N2` [SS20308-0305-01, N-(2-(1H-1,2,4-triazol-1-yl)ethyl)-2-(tetrahydro-2H-pyran-4-yl)-10,11-dihydro-5H-dibenzo[b,f]azepin-3-amine]: the IC50 was 0.58 µM in assay [1] (setting [4]), 0.2 µM in assay [2] and 0.14 µM in assay [3].
`CN(C)CCc1cc(Nc2cccnc2)cc2c1[nH]c1ccccc12` [SS20308-0291-01, 1-(2-(dimethylamino)ethyl)-N-(pyridin-3-yl)-9H-carbazol-3-amine]: the IC50 in assay [1] (setting [4]) is 0.02 µM and 0.16 µM; in assay [2], 0.06 µM and 0.12 µM; in assay [3], 0.05 µM and 0.06 µM.
With `Fc1ccc2[nH]c3c(NCCn4cncn4)c(-c4ccccc4)ccc3c2c1` [SS20308-0154-01, N-(2-(1H-1,2,4-triazol-1-yl)ethyl)-6-fluoro-2-phenyl-9H-carbazol-1-amine], the figures for the concentration for half-maximal inhibition (IC50) in assay [1] (setting [4]), in assay [2] and in assay [3] were 0.44 µM, 1.06 µM and 0.35 µM, respectively.
Turning to `CN(C)CCOc1cccc2c1-c1[nH]c3ccccc3c1CS2` [SS20308-0046-01, 2-(6,11-dihydrothiochromeno[4,3-b]indol-1-yloxy)-N,N-dimethylethanamine], the figures for the half-maximal inhibitory concentration (IC50) in assay [1] (setting [4]), in assay [2] and in assay [3] were 0.97 µM, 0.63 µM and 0.62 µM, respectively.
Consider `c1ccc2c(c1)CCc1cc(C3CC3)c(NCCn3cncn3)cc1N2` [SS20308-0269-01, N-(2-(1H-1,2,4-triazol-1-yl)ethyl)-2-cyclopropyl-10,11-dihydro-5H-dibenzo[b,f]azepin-3-amine], for which the figures for the half-maximal inhibitory concentration (IC50) in assay [1] (setting [4]), in assay [2] and in assay [3] were 0.55 µM, 0.55 µM and 0.11 µM, respectively.
Consider `CN(C)CCOc1c(-c2ccccc2N)ccc2c1[nH]c1ccccc12` [SS20308-0073-01, 2-(1-(2-(dimethylamino)ethoxy)-9H-carbazol-2-yl)aniline dihydrochloride], for which the IC50 turned out to be 26.1 µM in assay [1] (setting [5]), 14.4 µM in assay [2] and 49.2 µM in assay [3].
For the molecule `c1ccc(-c2cc3c(cc2NCCn2cncn2)[nH]c2ccccc23)cc1` [SS20308-0061-01, N-(2-(1H-1,2,4-triazol-1-yl)ethyl)-3-phenyl-9H-carbazol-2-amine], the IC50 in assay [1] (setting [5]) is 0.94 µM and 1.33 µM; in assay [2], 0.36 µM and 0.79 µM; in assay [3] it was 0.19 µM and 0.29 µM.
For `Fc1ccc2[nH]c3cc4c(cc3c2c1)CCN4CCn1cncn1` [SS20308-0208-01, 1-(2-(1H-1,2,4-triazol-1-yl)ethyl)-6-fluoro-1,2,3,9-tetrahydropyrrolo[2,3-b]carbazole], the IC50 in assay [1] (setting [4]) turned out to be 0.18 µM; in assay [2] it was 0.2 µM; in assay [3], 0.01 µM.
Regarding `CN(C)CCOc1c2[nH]c3ccccc3c2cc2[nH]c3ccccc3c12` [SS20308-0065-01, 2-(5,11-dihydroindolo[3,2-b]carbazol-6-yloxy)-N,N-dimethylethanamine], the IC50 in assay [1] (setting [4]) was 0.03 µM; in assay [2], 0.01 µM and 0.04 µM; in assay [3], 0.02 µM and 0.06 µM.
With `c1ccc(-c2cc3c([nH]c4ccccc43)c(OCCn3cncn3)n2)cc1` [SS20308-0018-01], the IC50 in assay [1] (setting [5]) was 1.39 µM; in assay [2], 47 µM; in assay [3], 4.07 µM.
Take `CN(C)CCOc1cc2c(cc1-c1ccccc1[N+](=O)[O-])[nH]c1ccccc12` [SS20308-0076-01, N,N-dimethyl-2-(2-(2-nitrophenyl)-9H-carbazol-3-yloxy)ethanamine]: the IC50 in assay [1] (setting [4]) is 5.7 µM; in assay [2], 4.54 µM; in assay [3], 3.59 µM.
For the molecule `c1ccc(-c2c(NCCn3cncn3)ccc3c2[nH]c2ccccc23)cc1` [SS20308-0085-01, N-(2-(1H-1,2,4-triazol-1-yl)ethyl)-1-phenyl-9H-carbazol-2-amine], the IC50 is 1.19 µM and 2.23 µM in assay [1] (setting [5]); 0.57 µM and 1.6 µM in assay [2]; 0.32 µM and 0.92 µM in assay [3].
Consider `COc1c2[nH]c(-c3ccccc3)nc2c(F)c2c1[nH]c1ccccc12` [SS20308-0137-01, 10-fluoro-4-methoxy-2-phenyl-3,5-dihydroimidazo[4,5-b]carbazole], for which the half-inhibitory concentration (IC50) in assay [1] (setting [4]) stood at 0.5 µM; in assay [2] it was 0.72 µM; in assay [3] it was 0.53 µM.
With `c1ccc2c(c1)CCc1ccc(NCCCN3CCOCC3)cc1N2` [SS20308-0303-01, N-(3-morpholinopropyl)-10,11-dihydro-5H-dibenzo[b,f]azepin-3-amine], the IC50 came out at 0.9 µM in assay [1] (setting [4]), 0.12 µM in assay [2] and 0.09 µM in assay [3].
The corresponding values for `CN(C)CCOc1c2[nH]c(-c3ccccc3)nc2c(F)c2c1[nH]c1ccccc12` [SS20308-0121-01, 2-(10-fluoro-2-phenyl-3,5-dihydroimidazo[4,5-b]carbazol-4-yloxy)-N,N-dimethylethanamine] are 0.86 µM, 0.53 µM and 1.16 µM.
As to `Cc1cc2[nH]c3ccc(F)cc3c2cc1NCC1(Cn2cncn2)COC1` [SS20308-0233-01, N-((3-((1H-1,2,4-triazol-1-yl)methyl)oxetan-3-yl)methyl)-6-fluoro-2-methyl-9H-carbazol-3-amine], the IC50 in assay [1] (setting [4]) stood at 0.2 µM; in assay [2], 0.19 µM; in assay [3] it was 0.03 µM.
The like results for `CN(C)CCOc1ccc(Cl)c2c1-c1[nH]c3ccc(F)cc3c1CS2` [SS20308-0093-01, 2-(4-chloro-8-fluoro-6,11-dihydrothiochromeno[4,3-b]indol-1-yloxy)-N,N-dimethylethanamine] were, in that order, 2.37 µM, 1.46 µM and 1.69 µM.

The record behind these values is patent US20230174485A1, “LIPOXYGENASE INHIBITORS” (SRI International, priority 2020, published 2023).
